Measured values published in patent US20050119281A1, “Powder composition comprising zaleplon of defined particle size distribution and pharmaceutical products made therefrom” (Biogal Gyogyszergyar Rt, priority 2002, published 2005).

Assay: Particle size distribution of zaleplon particles by laser diffraction (Malvern Mastersizer)
Assay type: physicochemical
Conditions: suspended in hexane with 1% Tween 80, sonicated 120 seconds
Experimental: In accordance with the invention, the size distribution of zaleplon particles is determined by laser diffraction. Our method of determining the size of zaleplon particles used a Malvern™ Mastersizer laser diffraction instrument. Samples of the zaleplon were suspended in hexane containing a surfactant, 1% Tween® 80. The suspensions were mixed and then sonicated for 120 seconds to thoroughly disperse the zaleplon particles. The dispersion was then circulated in the flow cell of the Malvern Mastersizer for two minutes before particle size measurements were taken.

| SMILES | diameter that 10% of the particles are equal to or less than [μm] | diameter that 90% of the particles are equal to or less than [μm] | median particle size [μm] |
| --- | --- | --- | --- |
| CCN(C(C)=O)c1cccc(-c2ccnc3c(C#N)cnn23)c1 [Zaleplon, N-[3-(3-cyanopyrazolo[1,5-a]pyrimidin-7-yl)phenyl]-N-ethylacetamide] | 14 | 134 | 55 |
| CCN(C(C)=O)c1cccc(-c2ccnc3c(C#N)cnn23)c1 [milled zaleplon, N-[3-(3-cyanopyrazolo[1,5-a]pyrimidin-7-yl)phenyl]-N-ethylacetamide] | 8.3 | 84.6 | 37.0 |
| CCN(C(C)=O)c1cccc(-c2ccnc3c(C#N)cnn23)c1 [micronized zaleplon, N-[3-(3-cyanopyrazolo[1,5-a]pyrimidin-7-yl)phenyl]-N-ethylacetamide] | – | 15.1 | 6.3 |
